This is an account of results in US7973219B2, “Method for producing transgenic plants resistant to weed control compounds which disrupt the porphyrin pathways of plants” (Sumitomo Chemical Company, Limited, priority 1998, dated 2011).

Assay [1] has as its system E. coli BT3/pACYCSP+pTVCSF strain. Nature of the assay: Growth of E. coli BT3/pACYCSP+pTVCSF (variant cucumber ferrochelatase) with herbicidal compound. In kind it is cell-based, Escherichia coli. The following applies: 18 hours culture, Table 13. From the text: According to the description of Gibson, L. C. D. et al., Proc. Natl. Acad. Sci. USA, 92; p 1941 (1995), the DNA fragment containing bchH gene prepared in Example 1 was digested with the restriction enzymes NdeI and BglII. The resultant DNA fragment was inserted between NdeI restriction site and BamHI restriction site of expression vector pET11a (manufactured by Stratagene) to obtain plasmid pETBCH (FIG. 1). This plasmid pETBCH was introduced into E. coli BL21(DE3) strain competent cells (manufactured by Stratagene) according to the manual attached to the competent cells to obtain E. coli BL21(DE3)/pETBCH strain. The strain was inoculated into 1.5 ml LB liquid culture medium (1% tryptone, 0.5% yeast extract, 0.5% NaCl) containing 100 μg/ml ampicillin in a tube (14×10 mm), and the tube was covered with aluminum foil (hereinafter referred to as dark conditions), cultured with shaking at 37° C. under light of fluorescent lamp (about 8000 lux). When the absorbance at 600 nm of the liquid culture medium became about 0.6, isopropyl β-D-thiogalactopyranoside (IPTG) was added to the liquid culture medium so that the final concentration was 0.4 mM, and the culture was continued for about additional 20 hours. […] In contrast to this, when E. coli BL21(DE3)/pETBCH strain was cultured according to the same manner (with IPTG) except that the tube was not covered with aluminum foil (hereinafter referred to as light conditions), E. coli grew and turned red as above.
PCR was carried out by using cucumber ferrochelatase cDNA clone isolated by the method described in Miyamoto, K. et al. Plant Physiol., 105; p 769 (1994) as a template, an oligonucleotide composed of the nucleotide sequence of SEQ ID NO: 21 and an oligonucleotide composed of the nucleotide sequence of SEQ ID NO: 22 as primers to amplify the DNA fragment encoding cucumber ferrochelatase whose signal sequence had been deleted (hereinafter referred to as the variant cucumber ferrochelatase). […]
These E. coli strains were inoculated into YPT medium containing 10 or 1 ppm of the PPO inhibitory-type herbicidal compound represented by Structure 8, 100 μg/ml ampicillin, 15 μg/ml chloramphenicol, 10 μg/ml kanamycin, 10 μg/ml hemin and 50 μg/ml aminolevulinic acid, cultured under dark conditions or light conditions according to the same manner as in Example 2. Then, 18 hours after initiation of culture, the absorbance of liquid culture medium was measured at 600 nm. By taking the absorbance of the medium without the herbicidal compound as 1, the relative value of the absorbance of the medium containing the herbicidal compound was calculated.

The test system of assay [2] is E. coli BT3/pACYCSP+pHASYS4 strain. The assay is described as follows: Growth of E. coli BT3/pACYCSP+pHASYS4 with herbicidal compound. It counts as cell-based, Escherichia coli. Conditions: 1 ppm, 18 hours culture, Table 16. The text has this: According to the description of Gibson, L. C. D. et al., Proc. Natl. Acad. Sci. USA, 92; p 1941 (1995), the DNA fragment containing bchH gene prepared in Example 1 was digested with the restriction enzymes NdeI and BglII. The resultant DNA fragment was inserted between NdeI restriction site and BamHI restriction site of expression vector pET11a (manufactured by Stratagene) to obtain plasmid pETBCH (FIG. 1). This plasmid pETBCH was introduced into E. coli BL21(DE3) strain competent cells (manufactured by Stratagene) according to the manual attached to the competent cells to obtain E. coli BL21(DE3)/pETBCH strain. The strain was inoculated into 1.5 ml LB liquid culture medium (1% tryptone, 0.5% yeast extract, 0.5% NaCl) containing 100 μg/ml ampicillin in a tube (14×10 mm), and the tube was covered with aluminum foil (hereinafter referred to as dark conditions), cultured with shaking at 37° C. under light of fluorescent lamp (about 8000 lux). When the absorbance at 600 nm of the liquid culture medium became about 0.6, isopropyl β-D-thiogalactopyranoside (IPTG) was added to the liquid culture medium so that the final concentration was 0.4 mM, and the culture was continued for about additional 20 hours. […]

As for `C#CCOc1cc(N2C(=O)C3=C(CCCC3)C2=O)c(F)cc1Cl` [Structure 8], the Relative absorbance is reported as 0.92 in assay [1] (in the dark, 1 ppm); 0.89 in assay [1] (in the dark, 10 ppm); 0.78 in assay [1] (in the light, 1 ppm); 0.73 in assay [1] (in the light, 10 ppm); 1.0 in assay [2] (in the dark); 0.91 in assay [2] (in the light).
